US11787816B2, “Chlorin compound, and preparation and use thereof” (Southwest Jiaotong University, priority 2021, dated 2023)
Where two headings read alike, the source gives them in different places.

Experiments:
[1] = background statement; cited from earlier work
[2] = Photosensitizer-mediated PDT, in vitro proliferation (MTT), Hela; type: cell-based, human; details: human, Hela cells, Hela, no light, read-out: cell viability (%)
Method: (§1) Several kinds of tumor cells (human cervical cancer Hela cells, human hepatocellular carcinoma huh-7 cells and murine mammary carcinoma 4T1 cells) cultured in vitro from a variety of tissues were taken as cell models, so as to investigate the photodynamic effects mediated by different doses of CEFN, CEFO, Ce6 and HPPH on the three different tumor cells (n=3). The specific experimental procedures were carried out as follows.
(§2) Cells in the logarithmic growth phase were harvested and seeded in a 24-well plate. After growing to a confluence of 70-80%, the cells were randomly divided into a control group (free of drug and light irradiation), a drug group and a photodynamic group. The CEFN, CEFO, Ce6 and HPPH were added respectively in dark, and for each drug, four final concentrations 1, 2, 5, and 10 μg/mL were set with 3 replicates for each group. After the co-incubation, the groups were treated individually. Regarding the photodynamic group, the light irradiation was performed at a wavelength of 660 nm and three different light intensities, i.e., 2, 4 and 8 J/cm^2. After that, each group was digested, and were inoculated into a 96-well plate at 100 μL per well with 4 replicates for each treatment. 24 hours later, the 96-well plate was subjected to MTT assay as follows. Each well was added with 20 μL of MTT (3-4,5-dimethylthiazol-2,5-diphenyltetrazolium bromide) solution in the dark and incubated for 4 hours. The supernatant was discarded, and the residue was dissolved with 150 μL of dimethyl sulfoxide for 15 min. After that, the 96-well plate was measured by a microplate reader for the absorbance (OD value). The relative cell viability was calculated as follows: relative cell viability=OD value of experimental group/OD value of control group*100%.

[3] = system: human cervical cancer Hela cells; test: as above; type: cell-based
Method: as §1, §2

[4] = Photosensitizer-mediated PDT, in vitro proliferation (MTT), 4T1; type: cell-based, murine; details: mouse, 4T1 cells, no light
Method: as §1, §2
(§3) In this experiment, photodynamic effect mediated by the compounds (except CEFO and CEFN) in different Examples of this disclosure on the murine mammary carcinoma 4T1 cells was investigated. The experimental procedures are carried out as follows. Cells in the logarithmic growth phase were harvested and seeded in a 24-well plate. After growing to a confluence of 70-80%, the cells were randomly divided into multiple photodynamic groups and multiple no-light control groups. The compounds (as shown in Table 8a) with a final concentration of 10 μg/mL were added to each group respectively in dark with 3 replicates for each group, so as to co-incubate the cells with the drug. Regarding the multiple photodynamic groups, the light irradiation was performed at a wavelength of 660 nm and the light intensity of 8 J/cm^2. After that, each group was digested, and were inoculated into a 96-well plate at 100 μL per well with 4 replicates for light treatment and no light treatment. 24 hours later, the 96-well plate was measured by MTT assay as follows. Each well was added with 20 μL of MTT (3-4,5-dimethylthiazol-2,5-diphenyltetrazolium bromide) solution in the dark and incubated for 4 hours. The supernatant was discarded, and the residue was dissolved with 150 μL of dimethyl sulfoxide for 15 min. After that, the 96-well plate was measured by a microplate reader for the absorbance (OD value). The relative cell viability of the murine mammary carcinoma 4T1 cells was calculated as follows according to the measured absorbance (OD value) in each group: relative cell viability=OD value of experimental group/OD value of control group*100%.

[5] = system: murine mammary carcinoma 4T1 cells; test: as above; type: cell-based; details: for viability at 10 µg/mL / cell viability (%), +8 J/cm^2 / cell viability (%), No light: 10 μg/mL
Method: as §1, §2, §3

[6] = Photosensitizer-mediated PDT, in vitro proliferation (MTT), huh-7; type: cell-based, human; details: human, huh-7 cells, no light, read-out: cell viability (%)
Method: as §1, §2

[7] = system: human hepatocellular carcinoma huh-7 cells; test: as above; type: cell-based; details: Homo sapiens, light or radiation study, 660 nm, 8 J/cm^2, read-out: cell viability (%)
Method: as §1, §2

[8] = system: murine mammary carcinoma 4T1 cells; test: Antitumor activity as sonosensitizers (SDT) on tumor-bearing mice; type: in vivo
Method: The murine mammary carcinoma cells (4T1 line) were subjected to adherent culture. After growing to a confluence of 70%-80%, the cells in the culture flask were routinely digested, centrifuged and counted, and then resuspended with 0.85% normal saline to a density of 1×10^7 cells/mL. The cell suspension was injected into the left lateral middle axillary subcutaneous part of […] Bal b/c healthy mice (female, aged 6-8 weeks) at 0.1 mL/mouse. When the tumor diameter, which was observed every other day, reached 0.6-0.8 cm, the mice with well-growing tumors and no ulcers on the epidermis were selected for grouped treatment.
Mice with similar body weight and uniform tumor size are selected and randomly divided into 6 groups with 6 mice for each group. 48 h after inoculation, the mice were subjected to drug administration separately from the tail vein by group.
[…] 6 h after drug administration, each group of mice was anesthetized by intraperitoneal injection with 0.2 mL of 1% pentobarbital sodium. Then the mice were fixed to allow the tumor growth site exposed. The SDT group was treated using an ultrasonic therapeutic apparatus at an impulse waveform of 1.0 MHz and power of 3.0 W/cm^2 for 3 min. 7 days after SDT, the animals were sacrificed. The tumor was stripped and weighed, and the body weight was recorded.

[9] = 5 mg/kg tail vein, SDT 1.0 MHz, 3.0 W/cm^2, 3 min, 6 h after dosing, 7 days after SDT
[10] = 5 mg/kg, SDT, mice, in g (unit assumed)
[11] = Table 8a, read-out: cell viability (%), No light
[12] = Mus musculus, light or radiation study, Table 8a, 660 nm, 8 J/cm^2, read-out: cell viability (%), +8 J/cm^2

In the case of “2-(1-n-hexyloxy)ethyl chlorin f sodium salt”, the water solubility [1] is listed as “water-soluble”.
For `C=Cc1c(C)c2cc3nc(c(CC(=O)O)c4[nH]c(cc5nc(cc1[nH]2)C(C)=C5CC)c(C)c4C(=O)O)[C@@H](CCC(=O)O)[C@@H]3C` [Ce6, reference compound], the viability at 24 h, 1 μg/mL ([2]; 1 μg/mL) was 92 ± 3%, the viability at 24 h, 2 μg/mL ([2]; 2 μg/mL) was 89 ± 2% and the viability at 24 h, 5 μg/mL ([2]; 5 μg/mL) was 86 ± 4%. The viability at 24 h, 10 μg/mL ([2]; 10 μg/mL) was 83 ± 3%, the viability at 1 µg/mL ([3]; Homo sapiens, light or radiation study, Hela, 1 μg/mL, 660 nm, 8 J/cm^2, read-out: cell viability (%)) was 86 ± 3% and the viability at 2 µg/mL ([3]; Homo sapiens, light or radiation study, Hela, 2 μg/mL, 660 nm, 8 J/cm^2, read-out: cell viability (%)) was 76 ± 3%. For the same compound, the viability at 5 µg/mL ([3]; Homo sapiens, light or radiation study, Hela, 5 μg/mL, 660 nm, 8 J/cm^2, read-out: cell viability (%)) was 38 ± 2%, the viability at 10 µg/mL ([3]; Homo sapiens, light or radiation study, Hela, 10 μg/mL, 660 nm, 8 J/cm^2, read-out: cell viability (%)) was 21 ± 1% and the “toxicity to the cells when the drug is used alone without photodynamic treatment” value ([3]; summary statement for Hela, huh-7 and 4T1 cells, no light) was “toxic to the cells”. For the same compound, the viability at 24 h, 1 μg/mL ([4]; 1 μg/mL, read-out: cell viability (%)) was 91 ± 2%, the viability at 24 h, 2 μg/mL ([4]; 2 μg/mL, read-out: cell viability (%)) was 90 ± 3% and the viability at 24 h, 5 μg/mL ([4]; 5 μg/mL, read-out: cell viability (%)) was 86 ± 4%. The viability at 24 h, 10 μg/mL ([4]; read-out: cell viability (%)) was 85 ± 4%, the viability at 1 µg/mL ([5]; Mus musculus, light or radiation study, 1 μg/mL, 660 nm, 8 J/cm^2, read-out: cell viability (%)) was 88 ± 2% and the viability at 2 µg/mL ([5]; Mus musculus, light or radiation study, 2 μg/mL, 660 nm, 8 J/cm^2, read-out: cell viability (%)) was 79 ± 3%. The viability at 5 µg/mL ([5]; Mus musculus, light or radiation study, 5 μg/mL, 660 nm, 8 J/cm^2, read-out: cell viability (%)) was 54 ± 3%, the viability at 10 µg/mL ([5]; Mus musculus, light or radiation study, 660 nm, 8 J/cm^2, read-out: cell viability (%)) was 36 ± 1% and the viability at 24 h, 1 μg/mL ([6]; 1 μg/mL) was 96 ± 1%. It also gave a viability at 24 h, 2 μg/mL ([6]; 2 μg/mL) of 94 ± 2%, a viability at 24 h, 5 μg/mL ([6]; 5 μg/mL) of 90 ± 2% and a viability at 24 h, 10 μg/mL ([6]; 10 μg/mL) of 87 ± 2%. For the same compound, the viability at 1 µg/mL ([7]; 1 μg/mL) was 42 ± 3%, the viability at 2 µg/mL ([7]; 2 μg/mL) was 37 ± 3% and the viability at 5 µg/mL ([7]; 5 μg/mL) was 37 ± 2%. The viability at 10 µg/mL ([7]; 10 μg/mL) was 32 ± 3%, the “Inhibitory rate (average ± SD, %)” value [8, 9] was 53.3 ± 2.8% and the “Tumor weight (average ± SD, g)” value [8, 9] was 0.080 ± 0.005 g. The “Body weight At the beginning” value [8, 10] was 20.5 ± 0.4 and the “Body weight At the end” value [8, 10] was 21.4 ± 0.5.
In the case of `CCCCCCOCc1c(C)c2cc3nc(c(C)c4[nH]c(cc5nc(cc1[nH]2)C(C)=C5CC)c(C)c4C(=O)O)C(CCC(=O)O)C3C` (stereo not drawn) [Example 1, 3-hexyloxymethyl-3-devinyl-chlorin e4], the “cell viability (%), +8 J/cm^2” value ([5]; Table 8a, 660 nm) is reported as 2 ± 5% and the “cell viability (%), No light” value ([5]; Table 8a) is reported as 103 ± 1%.
In the case of `CCCCCCCCCCCOCc1c(C)c2cc3nc(c(C)c4[nH]c(cc5nc(cc1[nH]2)C(C)=C5CC)c(C)c4C(=O)O)[C@@H](CCC(=O)O)[C@@H]3C` [Example 6], the “cell viability (%), +8 J/cm^2” value ([5]; Table 8a, 660 nm) is reported as 4 ± 3% and the “cell viability (%), No light” value ([5]; Table 8a) is reported as 102 ± 2%.
In the case of `CCCCCCNCc1c(C)c2cc3nc(c(C)c4[nH]c(cc5nc(cc1[nH]2)C(C)=C5CC)c(C)c4C(=O)O)[C@@H](CCC(=O)O)[C@@H]3C` [Example 16, 3-n-hexylaminomethyl-3-devinyl-chlorin e4], the “cell viability (%), +8 J/cm^2” value ([5]; Table 8a, 660 nm) is reported as 7 ± 5% and the “cell viability (%), No light” value ([5]; Table 8a) is reported as 103 ± 3%.
For `CCCCCCCCCCCCNCc1c(C)c2cc3nc(c(C)c4[nH]c(cc5nc(cc1[nH]2)C(C)=C5CC)c(C)c4C(=O)O)[C@@H](CCC(=O)O)[C@@H]3C` [Example 20], the viability at 24 h, 10 μg/mL [4, 11] was 104 ± 1% and the viability at 10 µg/mL [5, 12] was 6 ± 3%.
For `CCCCCCCCCCCNCc1c(C)c2cc3nc(c(C)c4[nH]c(cc5nc(cc1[nH]2)C(C)=C5CC)c(C)c4C(=O)O)[C@@H](CCC(=O)O)[C@@H]3C` [Example 21], the viability at 24 h, 10 μg/mL [4, 11] was 101 ± 1% and the viability at 10 µg/mL [5, 12] was 9 ± 2%.
In the case of `CCCCCCCCCCNCc1c(C)c2cc3nc(c(C)c4[nH]c(cc5nc(cc1[nH]2)C(C)=C5CC)c(C)c4C(=O)O)[C@@H](CCC(=O)O)[C@@H]3C` [Example 22], the viability at 24 h, 10 μg/mL [4, 11] is reported as 99 ± 2% and the viability at 10 µg/mL [5, 12] is reported as 10 ± 4%.
With `CCCCCCCCCNCc1c(C)c2cc3nc(c(C)c4[nH]c(cc5nc(cc1[nH]2)C(C)=C5CC)c(C)c4C(=O)O)[C@@H](CCC(=O)O)[C@@H]3C` [Example 23] the viability at 24 h, 10 μg/mL [4, 11] was 102 ± 2% and the viability at 10 µg/mL [5, 12] was 8 ± 5%.
In the case of `CCCCCCCCNCc1c(C)c2cc3nc(c(C)c4[nH]c(cc5nc(cc1[nH]2)C(C)=C5CC)c(C)c4C(=O)O)[C@@H](CCC(=O)O)[C@@H]3C` [Example 24], the viability at 24 h, 10 μg/mL [4, 11] is reported as 100 ± 2% and the viability at 10 µg/mL [5, 12] is reported as 9 ± 5%.
Compound `CCCCCCCNCc1c(C)c2cc3nc(c(C)c4[nH]c(cc5nc(cc1[nH]2)C(C)=C5CC)c(C)c4C(=O)O)[C@@H](CCC(=O)O)[C@@H]3C` [Example 25] has a viability at 24 h, 10 μg/mL [4, 11] of 100 ± 2% and a viability at 10 µg/mL [5, 12] of 5 ± 3%.
`CCCCCNCc1c(C)c2cc3nc(c(C)c4[nH]c(cc5nc(cc1[nH]2)C(C)=C5CC)c(C)c4C(=O)O)[C@@H](CCC(=O)O)[C@@H]3C` [Example 26] gave a viability at 24 h, 10 μg/mL [4, 11] of 102 ± 1% and a viability at 10 µg/mL [5, 12] of 6 ± 5%.
For `CCCCNCc1c(C)c2cc3nc(c(C)c4[nH]c(cc5nc(cc1[nH]2)C(C)=C5CC)c(C)c4C(=O)O)[C@@H](CCC(=O)O)[C@@H]3C` [Example 27], the viability at 24 h, 10 μg/mL [4, 11] was 103 ± 3% and the viability at 10 µg/mL [5, 12] was 6 ± 2%.
`CCCNCc1c(C)c2cc3nc(c(C)c4[nH]c(cc5nc(cc1[nH]2)C(C)=C5CC)c(C)c4C(=O)O)[C@@H](CCC(=O)O)[C@@H]3C` [Example 28] gave a viability at 24 h, 10 μg/mL [4, 11] of 104 ± 1% and a viability at 10 µg/mL [5, 12] of 7 ± 4%.
